Test results published in article PMC9127750, “Structure-based design of CDC42 effector interaction inhibitors for the treatment of cancer” (Cell reports, 2022).
Several values for one entry are separate records, joined by “and”; a condition that tells them apart may be missing. Identical values can stand only once.

Tested on: WM3248 melanoma cells, 486 antibodies
Assay: Reverse phase protein arrays (RPPA)
Type: cell-based, Human
From the text: Pellets were snap frozen in liquid nitrogen and shipped to MD Anderson Cancer Center core RPPA facility for RPPA analysis (Table S5). Three biological replicates for each sample were generated.
Nomenclatures on the RPPA heatmaps: name_of_antibody.species_of_antibody.status_of_antibody. V - antibody validated; C - validation of antibody in progress; Q - antibody nonspecific; E – under evaluation; antibodies raised in M - mouse, G - goat, R - rabbit, or T - rat.

[1] = Norm_10: replicates 1-3 and Average, relative to 0

Compound: CN(C)c1cccc(Nc2cc(-c3ccccc3)nc(C3CCNCC3)n2)c1 [ARN22089, N1,N1-dimethyl-N3-(6-phenyl-2-(piperidin-4-yl)pyrimidin-4-yl)benzene-1,3-diamine]
- p38.MAPK.R.V Average (Norm_10, normalized to Norm_0): 0.984
- p38.MAPK._pT180_Y182.R.V Average (Norm_10, normalized to Norm_0): 0.822
- p38.a.M.V Average (Norm_10, normalized to Norm_0): 1.035
- p44.42.MAPK.R.V Average (Norm_10, normalized to Norm_0): 1.129
- p70.S6K1.R.V Average (Norm_10, normalized to Norm_0): 1.024
- p90RSK_pT573.R.C Average (Norm_10, normalized to Norm_0): 0.999
- PREX1.R.V normalized RPPA signal [1]: 1.017 and 0.962 and 0.972
- PTEN.R.V normalized RPPA signal [1]: 1.166 and 0.849 and 0.856 and 0.957
- PTPN12.R.V normalized RPPA signal [1]: 0.749 and 0.939 and 0.909
- PYGB.R.V normalized RPPA signal [1]: 1.205 and 1.156 and 1.144
- PYGM.M.C normalized RPPA signal [1]: 0.918 and 2.001 and 1.335
- Puma.R.C normalized RPPA signal [1]: 1.060 and 1.017 and 1.055
- Pyk2_pY402.R.C normalized RPPA signal [1]: 1.111 and 0.863 and 0.946
- RBM15.R.V normalized RPPA signal [1]: 0.891 and 1.000 and 0.960 and 0.950
- RIP3.R.C normalized RPPA signal [1]: 0.942 and 0.921 and 0.948 and 0.937
- RIP.R.C normalized RPPA signal [1]: 0.780 and 1.118 and 1.150 and 1.016
- RPA32.R.V normalized RPPA signal [1]: 1.060 and 1.362 and 1.197 and 1.207
- RPA32_pS4_S8.R.C normalized RPPA signal [1]: 1.546 and 1.295 and 1.489 and 1.443
- RRM1.R.C normalized RPPA signal [1]: 0.939 and 0.806 and 0.945 and 0.897
- RRM2.R.C normalized RPPA signal [1]: 0.757 and 0.774 and 0.866
- RSK1.R.V normalized RPPA signal [1]: 1.143 and 1.201 and 1.128
- RSK.R.C normalized RPPA signal [1]: 0.838 and 1.004 and 0.972
- Rab11.R.C normalized RPPA signal [1]: 1.030 and 0.917 and 0.953
- Rab25.R.V normalized RPPA signal [1]: 1.035 and 0.882 and 0.858 and 0.925
- Rad17_pS645.R.V normalized RPPA signal [1]: 0.792 and 0.966
- Rad23A.R.C normalized RPPA signal [1]: 0.804 and 0.923 and 1.597 and 1.108
- Rad50.R.V normalized RPPA signal [1]: 1.116 and 1.111
- Rad51.R.C normalized RPPA signal [1]: 0.827 and 0.908 and 0.944 and 0.893
- Raptor.R.V normalized RPPA signal [1]: 0.845 and 0.882 and 0.940 and 0.889
- Rb.M.Q normalized RPPA signal [1]: 0.863 and 1.097 and 1.016
- Rb_pS807_S811.R.V normalized RPPA signal [1]: 0.811 and 0.958 and 0.878
- Rheb.M.C normalized RPPA signal [1]: 1.032 and 1.240 and 1.115
- Rictor.R.C normalized RPPA signal [1]: 0.988 and 0.910 and 0.945 and 0.948
- Rictor_pT1135.R.V normalized RPPA signal [1]: 0.873 and 0.950 and 0.954
- S6.M.V normalized RPPA signal [1]: 1.085 and 0.996 and 1.017
- S6_pS235_S236.R.V normalized RPPA signal [1]: 0.521 and 0.472 and 0.641 and 0.545
- S6_pS240_S244.R.V normalized RPPA signal [1]: 0.582 and 0.274 and 0.654 and 0.504
- SCD.M.V normalized RPPA signal [1]: 0.991 and 1.046
- SDHA.R.V normalized RPPA signal [1]: 0.992 and 0.940 and 0.859 and 0.930
- SF2.R.V normalized RPPA signal [1]: 0.895 and 1.050 and 0.922 and 0.956
- SFRP1.R.V normalized RPPA signal [1]: 0.808 and 0.981 and 1.003 and 0.931
- SGK1.R.V normalized RPPA signal [1]: 1.008 and 0.920 and 1.014 and 0.981
- SGK3.R.V normalized RPPA signal [1]: 0.816 and 0.987 and 0.963 and 0.922
- SHP2.R.V normalized RPPA signal [1]: 0.944 (2×) and 1.029 and 0.972
- SHP.2_pY542.R.C normalized RPPA signal [1]: 1.060 and 0.917 and 0.992 and 0.990
- SIRPαR.V normalized RPPA signal [1]: 0.835 and 1.085 and 0.937 and 0.953
- SLC1A5.R.C normalized RPPA signal [1]: 1.027
- SOD1.M.V normalized RPPA signal [1]: 0.907 and 1.127 and 1.007 and 1.014
- SOD2.R.V normalized RPPA signal [1]: 1.018 and 1.276 and 0.952 and 1.082
- SOX7.R.V normalized RPPA signal [1]: 1.145 and 1.060
- STING.R.V normalized RPPA signal [1]: 0.851 and 0.953
- Shc_pY317.R.C normalized RPPA signal [1]: 0.714 and 5.496 and 1.397 and 2.535
- Slfn11.G.C normalized RPPA signal [1]: 0.876 and 1.082 and 1.481 and 1.146
- Smac.M.Q normalized RPPA signal [1]: 0.850 and 1.137 and 0.963 and 0.983
- Smad1.R.V normalized RPPA signal [1]: 0.960 and 0.924 and 0.963
- Smad3.R.V normalized RPPA signal [1]: 1.062 and 0.979 and 1.026
- Smad4.R.V normalized RPPA signal [1]: 1.013 and 1.128 and 0.985
- Snail.M.Q normalized RPPA signal [1]: 0.664 and 0.941 and 0.860 and 0.822
- Sox2.R.V normalized RPPA signal [1]: 1.126 and 1.008 and 0.910 and 1.015
- Sox17.R.V normalized RPPA signal [1]: 0.905 and 1.111 and 1.000 and 1.005
- Src.M.V normalized RPPA signal [1]: 0.883 and 1.206 and 0.940 and 1.010
- Src_pY416.R.V normalized RPPA signal [1]: 1.030 and 0.914 and 0.902
- Src_pY527.R.V normalized RPPA signal [1]: 1.278 and 0.689 and 0.973
- Stat1_pY701.R.V normalized RPPA signal [1]: 0.995 (2×) and 1.011 and 1.000
- Stat3.R.C normalized RPPA signal [1]: 0.999 and 0.915 and 0.942
- Stat3_pY705.R.C normalized RPPA signal [1]: 1.077 and 1.148 and 1.012 and 1.079
- Stat5a.R.V normalized RPPA signal [1]: 1.155 and 0.661 and 0.766 and 0.861
- Stathmin.1.R.V normalized RPPA signal [1]: 0.870 and 1.129 and 0.982
- Syk.M.V normalized RPPA signal [1]: 0.771 and 0.940 and 1.123 and 0.945
- Synaptophysin.R.C normalized RPPA signal [1]: 0.939 and 1.003 and 0.960
- TAZ.R.V normalized RPPA signal [1]: 0.664 and 1.279 and 1.012
- TEAD.R.C normalized RPPA signal [1]: 0.761 and 0.855 and 1.077 and 0.898
- TFAM.R.V normalized RPPA signal [1]: 0.933 and 0.917 and 0.914 and 0.921
- TFRC.R.V normalized RPPA signal [1]: 0.993 and 0.819 and 0.888 and 0.900
- TIGAR.R.V normalized RPPA signal [1]: 0.948 and 0.928 and 0.972
- TRAP1.M.V normalized RPPA signal [1]: 0.886 and 1.063 and 0.996
- TRIM24.R.C normalized RPPA signal [1]: 0.955 and 1.027
- TRIM25.R.C normalized RPPA signal [1]: 0.793 and 0.863 and 1.102 and 0.919
- TRIP13.R.V normalized RPPA signal [1]: 1.018 and 1.029 and 1.031
- Tau.M.C normalized RPPA signal [1]: 1.047 and 1.298 and 0.928
- Transglutaminase.M.V normalized RPPA signal [1]: 1.016 and 1.436 and 2.172 and 1.541
